Laboratory results from patent publication US6849722B2, “Polymerized oligopeptide-surfactant chiral micelles” (Board of Supervisors of Louisiana State University and …, priority 1998, dated 2005).

What was measured:
[1] = Effective electrophoretic mobility by capillary zone electrophoresis/indirect photometric detection; format: physicochemical; conditions: 100 mM boric acid and 5 mM Na2B4O7, pH 8.0; NMS light-absorbing electrolyte
[2] = Critical micelle concentration by surface tension measurement; format: physicochemical; conditions: in pure water
Description: Table 1 compares the structural features and physicochemical properties of L-SUV and L-SUVV. The critical micelle concentration (“CMC”) for both chiral surfactants was measured by following a linear decrease in surface tension as surfactant concentration increased, up to a point. After this point, no appreciable change in surface tension was observed. The point of intersection of the two lines (the linear decrease and the flat line thereafter) was taken as the CMC of the surfactants. The greater hydrophobicity of L-SUVV compared to L-SUV gave the former a lower CMC. In addition, an increase in the molecular weight decreased the mobility of L-SUVV toward the injector end. Thus, L-SUVV eluted faster than L-SUV, as it was carried more rapidly by bulk electroosmotic flow (EOF) towards the detection window.
All surfactants in this study were synthesized according to the procedure of Wang, J.; Warner, I. M. Anal. Chem. 1994, 66, 3773-3776. […] The critical micelle concentrations of the surfactants were determined by surface tension measurements as previously described. […] These numbers were calculated from average molecular weights as determined by ultracentrifugation. All monomers and polymers used in this study were 99% pure or better, as determined from elemental analysis.

[3] = cited from earlier work

Substance | effective electrophoretic mobility (μep) [1] | critical micelle concentration (CMC) [2] [mM] | pKa [3]
sodium N-undecylenyl-L-valine-L-valine [L-U-Val-Val] | −1.2 × 10^−4 cm^−2 V^−1 s^−1 | 10 | –
tris (hydroxymethyl)aminomethane | – | – | around 8
